# Assay results taken from patent publication US20160015817A1, “METHODS OF TREATMENT OF PEDIATRIC SOLID TUMOR” (priority 2013, published 2016).
# “Also recorded” adds a separate entry of the source.
# Experiments:
# cleaved caspase-3 = assay: Immunohistochemistry of SK-N-BE(2) xenografts, apoptotic marker; format: in vivo, mice; settings: different dosages of Abraxane; Taxol 20 mg/kg/weekly; end of study
# phospho-histone H3 [1] = assay: Immunohistochemistry of RH4 xenografts, mitotic marker; format: in vivo, mice; settings: 48 hours after Abraxane 50 mg/kg iv or Taxol 30 mg/kg iv
# Source text: Similarly, RH4 xenografts were harvested and analyzed by IHC for phosphor-histone H3.
# phospho-histone H3 [2] = assay: Immunohistochemistry of SK-N-BE(2) xenografts, mitotic marker; format: in vivo, mice; settings: different dosages of Abraxane; Taxol 20 mg/kg/weekly; end of study
# relapsed RH4 xenografts = assay: Relapsed RH4 xenograft model, re-treatment; format: in vivo, mice; settings: re-treatment on day 52, 59 and 66, Taxol 30 mg/kg or Abraxane 50 mg/kg
# Source text: Tumor growth was monitored.
# RD xenograft = assay: RD rhabdomyosarcoma xenograft model; format: in vivo, mice; settings: Taxol 30 mg/kg weekly, Abraxane 50 mg/kg weekly
# Protocol: Control mice received saline.
# Tumor growth was assessed in RD xenograft model with paclitaxel/Abraxane treatment. In Abraxane treatment group, tumor-bearing mice received Abraxane (50 mg/kg, weekly) treatment. In paclitaxel treatment group, since tumor sizes are reaching the endpoint after 2-week paclitaxel treatment in paclitaxel group, those mice were randomized into two groups with 5 animals in each group on day 15: one group of animals continued receiving 30 mg/kg of paclitaxel and the other group received 50 mg/kg of Abraxane instead.
# RH4 xenograft = assay: RH4 rhabdomyosarcoma subcutaneous xenograft model; settings: for local relapse-free interval: RH4 model
# Protocol: Briefly, tumor cells were washed three times with HBSS before injection. Mice were given a subcutaneous injection of 1×10^6 tumor cells. Tumor growth was measured weekly in two dimensions using a digital caliper, and tumor volume was calculated as width^2×length×0.5. Once the tumor diameter reached 0.5 cm, mice were randomized into treatment groups with 10 animals in each group. […] Taxol® was administered i.v. at 20 or 30 mg/kg weekly. Control mice received saline. Tumor volume, mouse body weight and signs of animal distress were evaluated twice or three times a week for any potential drug toxicity. Animals were sacrificed once the tumor size reached 1.5 cm^3.
# Tumor volume was measured and calculated as width^2×length×0.5. […] Drugs were given on day 52, 59 and 66 with the same schedule and dosage as above. Tumor growth was monitored.
# [3] = system: A673 Ewing's sarcoma cells; assay: A673 Ewing sarcoma subcutaneous xenograft; format: in vivo, mice; settings: gemcitabine 100 mg/kg i.p. twice weekly with nab-paclitaxel
# Protocol: (§1) Briefly, 5×10^6143.98.2 osteosarcoma cells or A673 Ewing's sarcoma cells were suspended in 100 μl PBS and implanted subcutaneously with 33% Matrigel in 5-6 week-old female athymic nu/nu mice. Tumor volume was calculated using the formula L·W2·(π/6), where L=the longest tumor diameter and W=the widest tumor diameter perpendicular to L. When tumors reached 200-300 mm^3, animals were treated with either saline control, nab-paclitaxel 30 mg/kg intravenously on days 1-5 for a single course, gemcitabine 100 mg/kg intraperitoneally twice weekly until death, or the combination of nab-paclitaxel and gemcitabine. Mice were sacrificed once tumors reached 10% body weight (˜2500 mm^3).
# (§2) To perform statistical analysis, it was calculated that a sample of 10 mice per group would provide an 80% power to detect a difference in tumor size of 41%, Power was calculated at a significance level of 0.05 using a two-tailed, two sample Student's t-test assuming equal variance. GraphPad Prism 5 software was used to analyze survival by log-rank and tumor growth by two sample Student's t-test.
# [4] = system: 143.98.2 osteosarcoma cells; format: in vivo; settings: nab-paclitaxel 30 mg/kg i.v. days 1-5; gemcitabine 100 mg/kg i.p. twice weekly; p=0.031 combination vs nab-paclitaxel alone
# Protocol: as §1, §2
# [5] = dosing on days 1, 8 and 15, Taxol 30 mg/kg, Abraxane 50 mg/kg
Compound,apoptotic cell population (cleaved caspase-3 staining) (cleaved caspase-3),phospho-histone H3 positive cells (phospho-histone H3 [1]),phospho-histone H3 positive cells (phospho-histone H3 [2]),response of tumors relapsed after Taxol (paclitaxel) treatment (relapsed RH4 xenografts),response of tumors relapsed after Taxol (paclitaxel) treatment (relapsed RH4 xenografts; listed as paclitaxel),tumor growth (tumor volume) (RD xenograft),animals that developed relapsed tumors (RH4 xenograft; 7 animals per group),"tumor growth (tumor volume) (RH4 xenograft; Abraxane 50 mg/kg, Taxol 30 mg/kg i.v. weekly)",local relapse-free interval (RH4 xenograft),local relapse-free interval (RH4 xenograft; listed as paclitaxel),"mice that died (RH4 xenograft; Taxol 30 mg/kg group, Day 10)",complete regression observed after day (RH4 xenograft; [5]),time to tumor relapse after complete regression (RH4 xenograft; [5]),additive benefit of gemcitabine added to nab-paclitaxel [3],tumor growth [4]
"CC(=O)O[C@H]1C(=O)[C@@]2(C)[C@H]([C@H](OC(=O)c3ccccc3)[C@]3(O)C[C@H](OC(=O)[C@H](O)[C@@H](NC(=O)c4ccccc4)c4ccccc4)C(C)=C1C3(C)C)[C@]1(OC(C)=O)CO[C@@H]1C[C@@H]2O [Taxol®, paclitaxel]",only slightly increased apoptosis in tumors,Significant increased population of phospho-histone H3 positive cells,only slightly increased phospho-histone H3 positive cells,drug resistant against Taxol®,paclitaxel-resistant,"slow the growth of RD tumors, but those tumors grew progressively with no signs of tumor regression; also recorded: significantly inhibited tumor growth",all Taxol® treated animals demonstrated tumor relapse,"significantly inhibited RH4 tumor growth, with tumor regression observed after the 2nd dosage on day 8",13.6 ± 2.07 days,34 days,1 out of 7,> 31 days,11 to 15 days,–,–
Nc1ccn([C@@H]2O[C@H](CO)[C@@H](O)C2(F)F)c(=O)n1 [gemcitabine],–,–,–,–,–,–,–,–,–,–,–,–,–,no additive benefit,appeared additive
